Measured values as given in publication PMC11882969 (Nature Communications, 2025).
“And” between values parts separate entries of the source, which are not always exact repeats. Equal entries are not always repeated.

Target: hCB1 (Homo sapiens, UniProt P21554)
Assay: bioSensAll ebBRET signaling profiling, hCB1
Assay type: cell-based
Parameters: host or cells: HEK293SL cells, transient PEI transfection
Details: for Gi1 hCB1 response: Gi1 biosensor; for Gi1 hCB1 / GoB hCB1: single replicate values, FigS6a

hCB1, sequence (P21554 whole entry): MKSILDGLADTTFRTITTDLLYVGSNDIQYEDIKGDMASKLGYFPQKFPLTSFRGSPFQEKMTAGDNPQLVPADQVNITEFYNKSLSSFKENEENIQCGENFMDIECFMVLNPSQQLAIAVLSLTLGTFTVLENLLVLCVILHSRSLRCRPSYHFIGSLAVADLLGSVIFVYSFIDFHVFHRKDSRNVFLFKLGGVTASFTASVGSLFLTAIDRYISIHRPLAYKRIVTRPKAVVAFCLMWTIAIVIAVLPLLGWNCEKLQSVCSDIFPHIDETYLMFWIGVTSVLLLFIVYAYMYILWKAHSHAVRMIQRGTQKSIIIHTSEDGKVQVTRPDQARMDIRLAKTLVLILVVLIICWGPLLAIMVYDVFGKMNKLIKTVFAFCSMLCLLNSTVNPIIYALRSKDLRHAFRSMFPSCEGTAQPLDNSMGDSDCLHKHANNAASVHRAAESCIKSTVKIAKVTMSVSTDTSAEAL

## COc1cccc(C(NC(=O)c2cc(C)n(-c3cccc(C(F)(F)F)c3)n2)c2ccco2)c1 (stereo not drawn) [‘1087]
Log [Compound] (M) -4.22186
  Gi1 hCB1 response: 111.515
  Gi1 hCB1: -6.833
  GoB hCB1: -8.4986
Log [Compound] (M) -4.63927
  Gi1 hCB1 response: -38.2838
  Gi1 hCB1: -6.864
  GoB hCB1: -10.0272
Log [Compound] (M) -5.05788
  Gi1 hCB1 response: -49.9669
  Gi1 hCB1: -7.357
  GoB hCB1: -7.545
Log [Compound] (M) -5.47381
  Gi1 hCB1 response: 11.0449
  Gi1 hCB1: -6.895
  GoB hCB1: -9.02
Log [Compound] (M) -5.89285
  Gi1 hCB1 response: -12.478
  Gi1 hCB1: -4.166
  GoB hCB1: -5.891
Log [Compound] (M) -6.31878
  Gi1 hCB1 response: -17.0885
  Gi1 hCB1: -2.0693
  GoB hCB1: -3.409
Log [Compound] (M) -6.72585
  Gi1 hCB1 response: -9.994
  Gi1 hCB1: -1.1443
  GoB hCB1: -0.5859
Log [Compound] (M) -7.14267
  Gi1 hCB1 response: -10.3741
  Gi1 hCB1: 2.34
  GoB hCB1: -0.6579
Log [Compound] (M) -7.55284
  Gi1 hCB1 response: 10.754
  Gi1 hCB1: 3.064
  GoB hCB1: 2.687
Log [Compound] (M) -8
  Gi1 hCB1 response: -2.496
  Gi1 hCB1: 2.926
  GoB hCB1: 1.8778
Log [Compound] (M) -8.22186
  Gi1 hCB1 response: 59.7022
  Gi1 hCB1: 2.463
  GoB hCB1: -2.043
Log [Compound] (M) -8.39794
  Gi1 hCB1 response: 12.6788
  Gi1 hCB1: -1.175
  GoB hCB1: 1.572
Log [Compound] (M) -8.68787
  Gi1 hCB1 response: -1.377
  Gi1 hCB1: 1.6
  GoB hCB1: -4.093
Log [Compound] (M) -9.15521
  Gi1 hCB1 response: -24.5192
  Gi1 hCB1: 2.463
  GoB hCB1: -0.01046
Log [Compound] (M) -9.61989
  Gi1 hCB1 response: 86.3361
  Gi1 hCB1: 1.8311
  GoB hCB1: 0.3672
Log [Compound] (M) -10.0969
  Gi1 hCB1 response: -14.3804
  Gi1 hCB1: 1.353
  GoB hCB1: 4.054
Log [Compound] (M) -10.5529
  Gi1 hCB1 response: -6.726
  Gi1 hCB1: 3.666
  GoB hCB1: 3.3884
Log [Compound] (M) -11.0177
  Gi1 hCB1 response: 6.211
  Gi1 hCB1: 2.525
  GoB hCB1: 3.856
Log [Compound] (M) -11.4949
  Gi1 hCB1 response: 9.702
  Gi1 hCB1: 4.128
  GoB hCB1: 2.507
Log [Compound] (M) -11.9208
  Gi1 hCB1 response: -11.0679
  Gi1 hCB1: 3.265
  GoB hCB1: 1.033
Log [Compound] (M) -12.3979
  Gi1 hCB1 response: -4.555
  Gi1 hCB1: 2.386
  GoB hCB1: 3.442
Log [Compound] (M) -12.8861
  Gi1 hCB1 response: -5.652
  Gi1 hCB1: 2.001
  GoB hCB1: 2.363
Log [Compound] (M) -13, individual replicate values
  Gi1 hCB1 response: -4.331 and 29.5096
Log [Compound] (M) -13
  Gi1 hCB1: 2.402 and 0.3203
  GoB hCB1: 4.845 and 3.406
